# Structures can show the parent of a compound that is named as a salt.
# What was measured:
# MMP-13 catalytic domain = target: T1, MMP-13 catalytic domain (Homo sapiens, UniProt P45452); test: MMP-13 catalytic domain inhibition (thiopeptolide substrate hydrolysis); format: biochemical; conditions: read-out: MMP-13CD IC50
# T1 construct: use the catalytic domain of the MMP-13 enzyme, namely matrix metalloproteinase-13 catalytic domain (“MMP-13CD”)
# Description: The assays measure the amount by which a test compound reduces the hydrolysis of a thiopeptolide substrate catalyzed by a matrix metalloproteinase enzyme. […] One such assay is described below in Biological Method 1.
# Some of the particular methods described below use the catalytic domain of the MMP-13 enzyme, namely matrix metalloproteinase-13 catalytic domain (“MMP-13CD”), rather than the corresponding full-length enzyme, MMP-13.
# Thiopeptolide substrates show virtually no decomposition or hydrolysis at or below neutral pH in the absence of a matrix metalloproteinase enzyme. A typical thiopeptolide substrate commonly utilized for assays is Ac-Pro-Leu-Gly-thioester-Leu-Leu-Gly-OEt. […] Assays are carried out with and without matrix metalloproteinase inhibitor compounds, and the amount of hydrolysis is compared for a determination of inhibitory activity of the test compounds.
IC50 (MMP-13 catalytic domain) [nM],melting point,SMILES
7,158.2 to 159.6 °C,"O=C(O)COc1ccc(Cn2nnc(-c3cccc(C#CCc4ccc(F)cc4)c3)n2)cc1 [Example D3, [4-(5-{3-[3-(4-Fluoro-phenyl)-prop-1-ynyl]-phenyl}-tetrazol-2-ylmethyl)-phenoxy]-acetic acid]"
690,226 to 228 °C,"O=C(O)c1ccc(Cn2nnc(-c3cccc(C#Cc4ccccc4)c3)n2)cc1 [Example G1, 4-[5-(3-Phenylethynyl-phenyl)-tetrazol-2-ylmethyl]-benzoic acid]"
10,211 to 213 °C,"O=C(O)c1ccc(Cn2nnc(-c3cncc(C#CCc4ccccc4)c3)n2)cc1 [Example H1, 4-{5-[5-(3-Phenyl-prop-1-ynyl)-pyridin-3-yl]-tetrazol-2-ylmethyl}-benzoic acid]"
39,204 to 206 °C,"COc1cccc(Cn2nnc(-c3cccc(C(=O)NCc4ccc(C(=O)O)cc4)c3)n2)c1 [Example 4, 4-({3-[2-(3-Methoxy-benzyl)-2H-tetrazol-5-yl]-benzoylamino}-methyl)-benzoic acid]"
24,145 to 146 °C,"COc1ccc(CNC(=O)c2cc(-c3nnn(Cc4ccc(S(C)(=O)=O)cc4)n3)ccn2)cc1 [Example F6, 4-[2-(4-Methanesulfonyl-benzyl)-2H-tetrazol-5-yl]-pyridine-2-carboxylic acid 4-methoxy-benzylamide]"
150,101 to 104 °C,"CS(=O)(=O)c1ccc(Cn2nnc(-c3cccc(C#CCc4ccc(F)cc4)c3)n2)cc1 [Example D5, 5-{3-[3-(4-Fluoro-phenyl)-prop-1-ynyl]-phenyl}-2-(4-methanesulfonyl-benzyl)-2H-tetrazole]"
1.2,172 to 173 °C,"O=C(O)C1CCC(Cn2nnc(-c3cccc(C#CCc4ccc(F)cc4)c3)n2)CC1 (centres unmarked) [Example I2, 4-(5-{3-[3-(4-Fluoro-phenyl)-prop-1-ynyl]-phenyl}-tetrazol-2-ylmethyl)-cyclohexanecarboxylic acid]"
22,143 to 144 °C,"CS(=O)(=O)c1ccc(Cn2nnc(-c3ccnc(C(=O)NCc4ccncc4)c3)n2)cc1 [Example F3, 4-[2-(4-Methanesulfonyl-benzyl)-2H-tetrazol-5-yl]-pyridine-2-carboxylic acid (pyridin-4-ylmethyl)-amide]"
47,150 to 152 °C,"CS(=O)(=O)c1ccc(Cn2nnc(-c3ccnc(C(=O)NCc4ccc(Cl)c(Cl)c4)c3)n2)cc1 [Example F10, 4-[2-(4-Methanesulfonyl-benzyl)-2H-tetrazol-5-yl]-pyridine-2-carboxylic acid 3,4-dichloro-benzylamide]"
–,188 to 190 °C,"COc1ccc(Cn2nnc(-c3ccc(OC)c(C(=O)NCc4ccc(C(F)(F)F)cc4)c3)n2)cc1 [Example 37, 2-Methoxy-5-[2-(4-methoxy-benzyl)-2H-tetrazol-5-yl]-N-(4-trifluoromethyl-benzyl)-benzamide]"
–,191 to 192 °C,"N#Cc1ccc(Cn2nnc(-c3cccc(C(=O)NCc4ccccc4)c3)n2)cc1 [Example 29, N-Benzyl-3-[2-(4-cyano-benzyl)-2H-tetrazol-5-yl]-benzamide]"
–,192 to 193 °C,"CC(C)CC#Cc1cccc(-c2nnn(Cc3ccc(C(=O)O)cc3)n2)c1 [Example G3, 4-{5-[3-(4-Methyl-pent-1-ynyl)-phenyl]-tetrazol-2-ylmethyl}-benzoic acid]"
210,178 to 179 °C,"CS(=O)(=O)c1ccc(Cn2nnc(-c3ccnc(C(=O)NCc4cncnc4)c3)n2)cc1 [Example F4, 4-[2-(4-Methanesulfonyl-benzyl)-2H-tetrazol-5-yl]-pyridine-2-carboxylic acid (pyrimidin-5-ylmethyl)-amide]"
–,147 to 150 °C,"CS(=O)(=O)c1ccc(Cn2nnc(-c3ccnc(C(=O)NC4CCc5ccccc54)c3)n2)cc1 (centres unmarked) [Example F9, 4-[2-(4-Methanesulfonyl-benzyl)-2H-tetrazol-5-yl]-pyridine-2-carboxylic acid indan-1-ylamide]"
–,158 to 160 °C,COC(=O)c1ccc(CNC(=O)c2cccc(-c3nnn(Cc4nccs4)n3)c2)cc1 [Example 9]
110,174 to 175 °C,"CS(=O)(=O)c1ccc(Cn2nnc(-c3ccnc(C(=O)NCc4cccnc4)c3)n2)cc1 [Example F7, 4-[2-(4-Methanesulfonyl-benzyl)-2H-tetrazol-5-yl]-pyridine-2-carboxylic acid (pyridin-3-ylmethyl)-amide]"
–,100 to 101 °C,"C/C=C/Cn1nnc(-c2cccc(C(=O)NCc3ccccc3)c2)n1 [Example 27, N-Benzyl-3-(2-but-2-enyl-2H-tetrazol-5-yl)-benzamide]"
–,217 to 219 °C,"O=C(O)c1ccc(CNC(=O)c2cccc(-c3nnn(Cc4cccc(F)c4)n3)c2)cc1 [Example 8, 4-({3-[2-(3-Fluoro-benzyl)-2H-tetrazol-5-yl]-benzoylamino}-methyl)-benzoic acid]"
–,161 to 162 °C,"COc1ccc(Cn2nnc(-c3cccc(C(=O)NCc4ccc(CN5CCOCC5)cc4)c3)n2)cc1 [Example 12, 3-[2-(4-Methoxy-benzyl)-2H-tetrazol-5-yl]-N-(4-morpholin-4-ylmethyl-benzyl)-benzamide]"
2.6,158 to 159 °C,"O=C(O)Cc1ccc(Cn2nnc(-c3cccc(C#CCc4ccc(F)cc4)c3)n2)cc1 [Example I1, [4-(5-{3-[3-(4-Fluoro-phenyl)-prop-1-ynyl]-phenyl}-tetrazol-2-ylmethyl)-phenyl]-acetic acid]"
190,100 to 103 °C,"CS(=O)(=O)c1ccc(Cn2nnc(-c3ccnc(C(=O)NCc4ccc(Oc5ccccc5)cc4)c3)n2)cc1 [Example F8, 4-[2-(4-Methanesulfonyl-benzyl)-2H-tetrazol-5-yl]-pyridine-2-carboxylic acid 4-phenoxy-benzylamide]"
24,178 to 179 °C,"N#Cc1ccc(Cn2nnc(-c3ccnc(C(=O)NCc4ccncc4)c3)n2)cc1 [Example F5, 4-[2-(4-Cyano-benzyl)-2H-tetrazol-5-yl]-pyridine-2-carboxylic acid (pyridin-4-ylmethyl)-amide]"
280,198 to 199 °C,"O=C(O)c1ccc(Cn2nnc(-c3cccc(C#CCCc4ccccc4)c3)n2)cc1 [Example G2, 4-{5-[3-(4-Phenyl-but-1-ynyl)-phenyl]-tetrazol-2-ylmethyl}-benzoic acid]"
–,228 °C (dec.),"COc1cc(CNC(=O)c2cccc(-c3nnn(Cc4ccc(C(=O)O)cc4)n3)c2)ccn1 (as salt: TFA) [Example 33, 4-(5-{3-[(2-Methoxy-pyridin-4-ylmethyl)-carbamoyl]-phenyl}-tetrazol-2-ylmethyl)-benzoic acid]"
–,166 to 169 °C,"COc1ccc(Cn2nnc(-c3cccc(C(=O)NCc4ccnc(OC)c4)c3)n2)cc1 [Example 16, 3-[2-(4-Methoxy-benzyl)-2H-tetrazol-5-yl]-N-(2-methoxy-pyridin-4-ylmethyl)-benzamide]"
–,177 to 178 °C,COC(=O)c1ccc(CNC(=O)c2cc(-c3nnn(Cc4ccc(OC)cc4)n3)ccc2OC)cc1 [Example 35]

# Reference: patent publication US20090029995A1, “HETERO BIARYL DERIVATIVES AS MATRIX METALLOPROTEINASE INHIBITORS” (WARNER-LAMBERT COMPANY, priority 2002, published 2009)
